In patent US20260355184A1, “SMALL MOLECULE DEGRADERS OF HIV-1 TAT PROTEIN” (priority 2022, published 2026) one finds CC50 and IC50 data, which are given here for 27 compounds.

Each structure is given as a SMILES string. Read-outs that look alike come from different tables or passages of the source.

Data set [1] in a line: Cytotoxicity assay, Cell-Titer-Glo, HeLa-CD4-LTR-LacZ. The following applies: human, hela-cd4-ltr-lacz cells, Infectivity CC50, HeLa-CD4-LTR-LacZ. The protocol:
(§1) Next, the activity of these leads against HIV infection was evaluated using the reporter cell line HeLa-CD4-LTR-LacZ, which stably expresses the β-galactosidase (β-Gal) gene under the control of the HIV 5′ LTR. The HIV NL4.3 strain was used for these studies and β-Gal activity was measured 72 hrs post infection (FIG. 3A). Cytotoxicity assays using Cell-Titer-Glo were performed in parallel to assess cell viability (FIG. 3A). […] Their anti-HIV activity was further assessed in acute replication of Jurkat T cells with the NL4.3 strain (FIG. 3A). […] These OM10.1 cells contain a single integrated wild-type provirus, while ACH-2 cells contain a single integrated provirus with a TAR mutation C37T, defective Tat-TAR feedback loop (FIG. 3B).

The subject of a further data set is HIV NL4.3 strain. Nature of the data set: HIV infectivity assay, reporter cell line HeLa-CD4-LTR-LacZ, β-Gal activity (Tat protein inhibition). Type of data set: cell-based, HIV-1 (NL4.3). The note with it: Human immunodeficiency virus 1, read-out: Infectivity IC50, HeLa-CD4-LTR-LacZ. Here is the method:
as §1

Compound `O=C(NCCCN1CCCC1=O)c1nn(-c2ccccc2)c2ccccc12` [compound 46715] yielded a CC50 in data set [1] (analogs of TT-44881 (Table 1)) greater than 100 µM. In addition, in the data set on HIV NL4.3 strain (analogs of TT-44881 (Table 1)), the IC50 was 50 to 100 µM.

In data set [1] (analogs of TT-44881 (Table 1)), `O=C(NCCCn1ccnc1)c1n[nH]c2c1CCC2` [compound 46726] gave a CC50 greater than 100 µM. Also, in the data set with HIV NL4.3 strain (analogs of TT-44881 (Table 1)), the IC50 was greater than 100 µM.

`O=C(NCCCN1CCCC1=O)c1n[nH]c2c1CCC2` [compound 46727] displayed a CC50 in data set [1] (analogs of TT-44881 (Table 1)) greater than 100 µM. In the data set on HIV NL4.3 strain (analogs of TT-44881 (Table 1)), the IC50 was greater than 100 µM.

As for `COc1ccccc1CNC(=O)Cn1cccc(Cl)c1=O` [compound 46747], in data set [1] (analogs of TT-44863 (Table 2)), the CC50 was greater than 100 µM. Moreover, the IC50 with HIV NL4.3 strain (analogs of TT-44863 (Table 2)) is greater than 100 µM.

As for `O=C(Cn1cc(C(F)(F)F)cc(Cl)c1=O)Nc1cccc(C(F)(F)F)c1` [compound 46748], the CC50 in data set [1] (analogs of TT-44863 (Table 2)) is greater than 100 µM. In addition, in the data set on HIV NL4.3 strain (analogs of TT-44863 (Table 2)), the IC50 is greater than 100 µM.

`O=C(NCCCN1CCCC1=O)c1cn(-c2ccccc2)c2ncccc12` [compound 46751] registered a CC50 in data set [1] (analogs of TT-44881 (Table 1)) greater than 100 µM. The IC50 with HIV NL4.3 strain (analogs of TT-44881 (Table 1)) is greater than 100 µM.

`O=C(NCCCN1CCCC1=O)c1nn(-c2ccccc2)c2ncccc12` [compound 46752] displayed a CC50 in data set [1] (analogs of TT-44881 (Table 1)) greater than 100 µM. The IC50 in the data set with HIV NL4.3 strain (analogs of TT-44881 (Table 1)) was greater than 100 µM.

`COCCOc1ccc(C(F)(F)F)cc1NC(=O)Cn1cccc(F)c1=O` [compound 46762] yielded a CC50 in data set [1] (analogs of TT-44863 (Table 2)) greater than 100 µM. Moreover, in the data set with HIV NL4.3 strain (analogs of TT-44863 (Table 2)), the IC50 was greater than 100 µM.

In turn, `COc1ccc(C(F)(F)F)cc1NC(=O)Cn1cccc(Cl)c1=O` [compound 46763] returned a CC50 in data set [1] (analogs of TT-44863 (Table 2)) greater than 100 µM. In addition, in the data set with HIV NL4.3 strain (analogs of TT-44863 (Table 2)), the IC50 fell in the range of 50 to 100 µM.

Regarding `COc1ccc(C(F)(F)F)cc1NC(=O)Cn1cccc(F)c1=O` [compound 46765], the CC50 in data set [1] (analogs of TT-44863 (Table 2)) is greater than 100 µM. Besides, the IC50 with HIV NL4.3 strain (analogs of TT-44863 (Table 2)) is greater than 100 µM.

In the case of `COc1cc(C(F)(F)F)ccc1NC(=O)Cn1cc(C(F)(F)F)cc(Cl)c1=O` [compound 46808], the CC50 in data set [1] (analogs of TT-44863 (Table 2)) is greater than 100 µM. The IC50 with HIV NL4.3 strain (analogs of TT-44863 (Table 2)) was in the range of 1 to 30 µM.

For the compound `COc1ccc(C(F)(F)F)cc1NC(=O)Cn1cc(C)cc(Cl)c1=O` [compound 46809], the CC50 in data set [1] (analogs of TT-44863 (Table 2)) is greater than 100 µM. For the same compound, in the data set on HIV NL4.3 strain (analogs of TT-44863 (Table 2)), the IC50 fell in the range of 1 to 10 µM.

Take `O=C(NCCCN1CCCC1=O)c1nn(-c2ccccc2)c2c1CCCC2` [compound 46819]: the CC50 in data set [1] (analogs of TT-44881 (Table 1)) was greater than 50 µM. Further, in the data set on HIV NL4.3 strain (analogs of TT-44881 (Table 1)), the IC50 is greater than 50 µM.

In data set [1] (analogs of TT-44881 (Table 1)), `O=C(NCCCN1CCCC1=O)c1nn(-c2ccccc2)c2ccc(F)cc12` [compound 46820] registered a CC50 greater than 100 µM. For the same compound, the IC50 with HIV NL4.3 strain (analogs of TT-44881 (Table 1)) fell in the range of 50 to 100 µM.

As to `O=C(NCCCN1CCCC1=O)c1c[nH]nc1C1CC1` [compound 46821], the CC50 in data set [1] (analogs of TT-44881 (Table 1)) was greater than 100 µM. In addition, in the data set on HIV NL4.3 strain (analogs of TT-44881 (Table 1)), the 50% inhibitory concentration (IC50) was greater than 100 µM.

For the compound `N#Cc1c(NCCCN2CCCC2=O)c2ccccc2[nH]c1=O` [compound 46822], in data set [1] (analogs of TT-44881 (Table 1)), the CC50 is greater than 100 µM. In addition, the IC50 with HIV NL4.3 strain (analogs of TT-44881 (Table 1)) is greater than 100 µM.

For `CCOC(=O)c1c(NCCCN2CCCC2=O)c2ccccc2[nH]c1=O` [compound 46823], the CC50 in data set [1] (analogs of TT-44881 (Table 1)) is greater than 100 µM. In the data set on HIV NL4.3 strain (analogs of TT-44881 (Table 1)), the IC50 is greater than 100 µM.

In data set [1] (analogs of TT-44881 (Table 1)), `Cc1cccc(-n2cc(C(=O)NCCCN3CCCC3=O)c3ccccc32)c1` [compound 46824] had a CC50 greater than 100 µM. The IC50 in the data set with HIV NL4.3 strain (analogs of TT-44881 (Table 1)) was greater than 100 µM.

As to `O=C(NCCCN1CCCC1=O)c1c(-c2ccccc2)[nH]c2ccccc2c1=O` [compound 46825], the CC50 in data set [1] (analogs of TT-44881 (Table 1)) was greater than 100 µM. Moreover, the half-inhibitory concentration (IC50) in the data set with HIV NL4.3 strain (analogs of TT-44881 (Table 1)) is greater than 100 µM.

`O=C(NCCCN1CCCC1=O)c1n[nH]c2ccccc12` [compound 46826] showed a CC50 in data set [1] (analogs of TT-44881 (Table 1)) greater than 100 µM. The IC50 with HIV NL4.3 strain (analogs of TT-44881 (Table 1)) was greater than 100 µM.

The compound `O=C(Nc1ccccc1)c1c(NCCCN2CCCC2=O)c2ccccc2[nH]c1=O` [compound 46827] displayed a CC50 in data set [1] (analogs of TT-44881 (Table 1)) greater than 100 µM. In addition, the IC50 in the data set with HIV NL4.3 strain (analogs of TT-44881 (Table 1)) is greater than 100 µM.

In data set [1] (analogs of TT-44863 (Table 2)), `COc1ccc(C#N)cc1NC(=O)Cn1cc(C(F)(F)F)cc(Cl)c1=O` [compound 46828] yielded a CC50 of 50 to 100 µM. Moreover, the IC50 in the data set with HIV NL4.3 strain (analogs of TT-44863 (Table 2)) lay in the range of 50 to 100 µM.

As to `COc1ccc(F)cc1NC(=O)Cn1cc(C(F)(F)F)cc(Cl)c1=O` [compound 46867], in data set [1] (analogs of TT-44863 (Table 2)), the CC50 is 50 to 100 µM. Besides, the IC50 with HIV NL4.3 strain (analogs of TT-44863 (Table 2)) lay in the range of 10 to 30 µM.

The compound `COc1ccc(OC)c(NC(=O)Cn2cc(C(F)(F)F)cc(Cl)c2=O)c1` [compound 46868] registered a CC50 in data set [1] (analogs of TT-44863 (Table 2)) greater than 100 µM. The IC50 in the data set on HIV NL4.3 strain (analogs of TT-44863 (Table 2)) is greater than 100 µM.

`COc1ccc(C(F)(F)F)cc1CNC(=O)Cn1cc(C(F)(F)F)cc(Cl)c1=O` [compound 46875]: the CC50 in data set [1] (analogs of TT-44863 (Table 2)) is greater than 100 µM. The IC50 in the data set on HIV NL4.3 strain (analogs of TT-44863 (Table 2)) was greater than 100 µM.

Consider `O=C(NCCCN1CCCC1=O)c1cn(-c2ccccc2)c2ccccc12` [compound 46878], for which, in data set [1] (analogs of TT-44881 (Table 1)), the CC50 was greater than 100 µM. Besides, the IC50 in the data set with HIV NL4.3 strain (analogs of TT-44881 (Table 1)) was in the range of 50 to 100 µM.

For `O=C(NCCCN1CCCC1=O)c1cn(-c2ccccc2)c2ncc(F)cc12` [compound 46879], the CC50 in data set [1] (analogs of TT-44881 (Table 1)) is greater than 100 µM. The IC50 in the data set on HIV NL4.3 strain (analogs of TT-44881 (Table 1)) fell in the range of 1 to 50 µM.

In general, CC50 refers to the concentration that lowers cell viability or growth by half. A low value points to greater toxicity to the cells. As usually defined, the IC50 is the point on the concentration scale where inhibition reaches its midpoint.
